Assay results reported in PMC3401907, “Cellular Uptakes, Biostabilities and Anti-miR-210 Activities of Chiral Arginine-PNAs in Leukaemic K562 Cells” (Chembiochem, 2012).

Tests used:
[1] = system: RNA1 (target region of miR-210); experiment: Melting temperature (Tm) of PNA:RNA duplexes, full-match RNA; type: binding; details: UV absorbance at 260 nm, strand concentration 5 μM
Description: Measurements of Tm values: The Tm values were determined with a Lambda Bio 20 spectrophotometer and a Peltier PTP6 temperature programmer. Thermal denaturation profiles were measured by monitoring the absorbance at 260 nm from 18 to 90 °C with a heating rate of 1 °C min^−1 and recording every 0.1 °C. […]

[2] = system: let-7c, miR-10a, miR-93, miR-99b, miR-126, miR-149, miR-424, miR-494, miR-483-5p and miR-625; experiment: Content of other microRNAs by RT-PCR (sequence specificity); type: cell-based, human; details: n=3
Description: Figure 5 A), B) Effects of treatment with PNA1, PNA2, PNA3, PNA4, PNA5 and PNA6 molecules on miR-210 contents in cells cultured for 24 h A) in the absence (□), and B) in the presence (▪) of MTH (15 nM). Data are reported as arbitrary units relative to cells treated with pept-1 (□) or with pept-1 and MTH (▪). C) Effects of treatment with PNA4 on miRNA contents in cells cultured for 24 h in the presence of MTH; RT-PCR was performed with a TaqMan MicroRNA Reverse Transcription Kit (Applied Biosystems) for let-7c, miR-10a, miR-93, miR-99b, miR-126, miR-149, miR-424, miR-483-5p and miR-625. Data are reported as arbitrary units relative to untreated cells (average ±SD; n=3).
Real-time quantitative PCR: For microRNA quantification with real-time RT-PCR reagents, the primers and probes were obtained from Applied Biosystems. […] Relative expression was calculated by the comparative cycle threshold method and U6 microRNA was used as reference gene to normalise all RNA samples, because it is constant in the assayed samples by miR-profiling and quantitative RT-PCR analysis as previously reported.[25]

[3] = system: DNA2 (mismatched DNA, G→T); experiment: Melting temperature (Tm) of PNA:DNA duplexes, single-mismatch DNA; type: binding
Text: Sequence selectivity is a very important issue in view of the use of PNAs in cellular systems, because partial hybridisation might occur with other unrelated miRNAs or, most importantly, with mRNA targets. We analysed the sequence selectivities of our PNAs with stricter models (DNA2 and RNA2) involving single base mismatches (G→T or G→U) located in the middle of the target sequences. In each case the sequence selectivity was confirmed by significant lowering of the melting temperature. The ranges of ΔTm due to the presence of these single mismatches were 8–21 °C for DNA, with the maximum drop in the case of PNA4 and the minimum observed in that of PNA6. For the latter it should be considered that the mismatch was facing the last chiral monomer, preventing the cooperative effect observed in the case of 2D-modifed highly constrained PNA.[22]
Measurements of Tm values: The Tm values were determined with a Lambda Bio 20 spectrophotometer and a Peltier PTP6 temperature programmer. Thermal denaturation profiles were measured by monitoring the absorbance at 260 nm from 18 to 90 °C with a heating rate of 1 °C min^−1 and recording every 0.1 °C. Measurement conditions: [PNA]=[DNA] or [RNA]=5 μM in PBS buffer [pH 7.0, NaCl (100 mM), NaH2PO4⋅H2O (10 mM), EDTA (0.1 mM)] with urea (5 M).

K562 cells = experiment: Mithramycin-induced erythroid differentiation (benzidine-positive cells); type: cell-based, human; details: MTH 15 nM, PNA 2 μM, benzidine-positive cells after 5 days of induction, three independent experiments
Description: In order to evaluate effects on mithramycin-induced cellular differentiation, K562 cells were treated with MTH in the presence of pept-1, PNA1, PNA2 and PNA4 (each 2 μM). The proportions of benzidine-positive cells were determined after 5 days of induction.
Human cell lines and culture conditions: Human leukaemia K562 cells were cultured under humidified CO2 (5 %)/air in RPMI 1640 medium (Sigma) supplemented with foetal bovine serum (FBS, 10 %, Analitical de Mori, Milan, Italy), penicillin (50 units mL^−1) and streptomycin (50 μg mL^−1).[26] Mithramycin (MTH) was from Sigma. Stock solutions of MTH (100 μM) were stored at −20 °C in the dark and diluted immediately before use. Treatment of K562 cells with MTH was carried out by addition of the appropriate drug concentrations at the beginning of the cultures (cells were seeded at 30 000 mL^−1). The medium was not changed during the induction period. To determine antiproliferative activity, cell growth was studied by determining the cell number per mL with a Z1 Coulter Counter (Coulter Electronics, Hialeah, FL, USA). Erythroid differentiated K562 cells containing haemoglobin were detected by specific reaction with a benzidine/hydrogen peroxide solution as reported elsewhere.[26] The final concentration of benzidine was 0.2 % in glacial acetic acid (5 M) and H2O2 (10 %).

## H-C5LArgC5LArgG5LArgC5LArgT5LArgG5LArgT5LArgC5LArgACACGCACAG-NH2 [PNA4, 5L Arg (C5) backbone-modified 18-mer PNA, model 2, stretch of consecutive modified monomers]
[1]; PBS buffer pH 7, no urea
  Tm, RNA1 in water: >90 °C
[1]; PBS buffer pH 7 with urea 5 M
  Tm, RNA1 in urea (5 M): 86 °C
[2]; K562 cells 24 h in the presence of MTH, RT-PCR
  effect on miR-149 hybridisation signal: inhibition of the hybridisation signal
[2]; K562 cells 24 h with MTH, let-7c, miR-10a, miR-93, miR-99b, miR-126, miR-424, miR-494, miR-483-5p, miR-625
  effect on hybridisation availability of other miRs: no major effects
[3]; DNA1 vs DNA2 (G→T in the middle of the target), urea 5 M
  ΔTm due to single mismatch, DNA: 21 °C
[3]; single mismatch, UV absorbance at 260 nm, PBS buffer pH 7 with urea 5 M, strand concentration 5 μM
  Tm, DNA2 in urea (5 M): 56 °C
K562 cells
  effect on MTH-induced erythroid differentiation: able to inhibit erythroid differentiation
